In publication PMC12314110, “Evaluation of Potential Effects of CYP3A Inhibition and CYP3A Induction on the Pharmacokinetics of Fruquintinib in Healthy Subjects” (Clinical Pharmacology in Drug Development, 2025):

Assays:
[1] = Part B: PK of single-dose fruquintinib alone and with rifampin (CYP3A induction); type: in vivo, human; conditions: for MPR AUC0‐inf (metabolite‐to‐parent ratio) / MPR AUC0‐t (metabolite‐to‐parent ratio) / MPR Cmax (metabolite‐to‐parent ratio): M11 to fruquintinib; for MPR AUC0‐inf (metabolite‐to‐parent ratio) / MPR AUC0‐t (metabolite‐to‐parent ratio) / MPR Cmax (metabolite‐to‐parent ratio) / Cmax / half-life / AUC / Tmax: Part B; for MPR AUC0‐inf (metabolite‐to‐parent ratio) / MPR AUC0‐t (metabolite‐to‐parent ratio) / MPR Cmax (metabolite‐to‐parent ratio) / Cmax / half-life / AUC: arithmetic mean (SD); for Cmax / half-life / AUC / Tmax: metabolite M11 in plasma; for Cmax: read-out: Cmax; for Tmax: median (minimum‐maximum)
Excerpt: (§1) This was a single‐center, open‐label, 2‐part (Part A and Part B), 2‐period, fixed‐sequence study conducted in healthy male and female subjects. Parts A and B evaluated the effect of the CYP3A inhibitor itraconazole and the CYP3A inducer rifampin on the PK profile of fruquintinib, respectively. Each part consisted of a screening phase, a treatment phase (Period 1 and Period 2), and an end‐of‐study (EOS) phase. Screening occurred within 21 days before the first study drug administration. There was at least a 14‐day washout of fruquintinib between treatment periods. PK samples were collected before dosing and over 168 hours following the fruquintinib dose in Part A (with itraconazole) and Part B (with rifampin). Part A and Part B were enrolled independently.
In Part B, subjects were administered fruquintinib alone in Treatment Period 1 and in combination with rifampin in Treatment Period 2. Study Day 1 was considered as the start of Treatment Period 1, and Study Day 8 was considered as the start of Treatment Period 2. On Study Day 1, a single dose of fruquintinib 5 mg by mouth was administered under fasted conditions, and on Study Day 15, a single dose of fruquintinib 5 mg was administered by mouth under fasted conditions alongside rifampin. Starting on Study Day 8, rifampin 600 mg was dosed by mouth once daily for 14 consecutive days, 7 days before fruquintinib dosing and 6 days after fruquintinib dosing, to ensure that induction was maintained throughout the PK sampling period. Subjects therefore received rifampin from Study Day 8 to Study Day 21. Absorption of rifampin is reduced by approximately 30% when the drug is ingested with food.[13] Therefore, rifampin was administered at least 1 hour before breakfast when given alone and under fasted conditions when administered with fruquintinib. Breakfast was given at least 1 hour after the rifampin doses on Study Days 8‐14 and Study Days 16‐21. On Study Day 15, subjects received both treatments under fasted conditions, and rifampin was administered 1hour before administration of a single dose of fruquintinib 5 mg by mouth. Subjects were discharged after completion of EOS procedures on Study Day 22 or at early withdrawal.
(§2) Blood samples for determination of fruquintinib and metabolite M11 plasma concentrations were collected before dosing and at 0.5, 1, 1.5, 2, 3, 4, 6, 8, 12, 24, 36, 48, 72, 96, 120, 144, and 168 hours after fruquintinib dosing. Plasma samples were analyzed by LabCorp Bioanalytical (Indianapolis, IN) using a validated liquid chromatography with tandem mass spectrometry assay method with an analytical range of 1.00 ng/mL (lower limit of quantitation) to 750 ng/mL (upper limit of quantitation) for both fruquintinib and M11.[6] Interrun variability was 6.3% or less and 13.8% or less for fruquintinib and M11, respectively. Quality control samples at 4 concentrations (3, 30, 300, and 600 ng/mL) were assayed along with study samples, and the bias quality control sample concentrations deviated by ±2.0% and ±2.7% from the nominal concentrations for fruquintinib and M11, respectively.
(§3) PK parameters were determined by noncompartmental analysis and included maximum plasma concentration (Cmax); time to reach Cmax (tmax); area under the plasma concentration‐time curve (AUC) from time 0 to the time of the last measurable concentration (AUC0‐t); AUC from time 0 to infinity (AUC0‐inf); half‐life (t1/2); and the metabolite‐to‐parent ratios for Cmax, AUC0‐t, and AUC0‐inf. Apparent oral clearance and volume of distribution were also estimated for fruquintinib.
For Part A, the effect of itraconazole based on the PK parameters of fruquintinib was evaluated using a linear mixed‐effect model with treatment (ie, fruquintinib with itraconazole [test] and fruquintinib alone [reference]) as fixed effects and subject as a random effect. A similar inferential analysis was performed for Part B, but fruquintinib with rifampin was the test group. […]

[2] = Part A: PK of single-dose fruquintinib alone and with itraconazole (CYP3A inhibition); type: in vivo, human; conditions: for MPR AUC0‐inf (metabolite‐to‐parent ratio) / MPR AUC0‐t (metabolite‐to‐parent ratio) / MPR Cmax (metabolite‐to‐parent ratio): M11 to fruquintinib; for MPR AUC0‐inf (metabolite‐to‐parent ratio) / MPR AUC0‐t (metabolite‐to‐parent ratio) / MPR Cmax (metabolite‐to‐parent ratio) / Cmax / Tmax / half-life / AUC: Part A; for MPR AUC0‐inf (metabolite‐to‐parent ratio) / MPR AUC0‐t (metabolite‐to‐parent ratio) / MPR Cmax (metabolite‐to‐parent ratio) / Cmax / half-life / AUC: arithmetic mean (SD); for Cmax / Tmax / half-life / AUC: both sexes, human, oral, metabolite M11 in plasma; for Cmax: read-out: Cmax; for Tmax: median (minimum‐maximum); for half-life / AUC: plasma
Excerpt: as §1
In Part A, subjects were administered fruquintinib alone in Treatment Period 1 and in combination with itraconazole in Treatment Period 2. Study Day 1 was considered the start of Treatment Period 1, and Study Day 15 was considered the start of Treatment Period 2. On Study Day 1, subjects received a single dose of fruquintinib 5 mg by mouth under fasted conditions (subjects fasted for at least 10 hours before fruquintinib dosing and 4 hours after), and on Study Day 19 subjects received a second single dose of fruquintinib 5 mg by mouth under fasted conditions, alongside itraconazole. On Study Day 15, subjects began a regimen of itraconazole 200 mg by mouth twice a day, followed by once daily dosing on Study Days 16‐25. A dose of 200 mg was selected, with a loading dose as part of a 5‐day lead‐in (twice daily for 1 day, once daily for 4 days) to achieve appropriate inhibition of CYP3A before dosing with fruquintinib.[10] Once‐daily dosing of itraconazole for an additional 5 days throughout the fruquintinib PK sampling period was continued to maintain CYP3A inhibition.[11]
As itraconazole oral bioavailability is maximal when the capsules are taken immediately after a full meal,[12] it was administered under fed conditions except when coadministered with fruquintinib on Study Day 19. Itraconazole doses were administered 30 minutes after the start of breakfast on Study Days 15‐18 and Study Days 20‐25. On Study Day 19, subjects received both treatments under fasted conditions, and itraconazole was administered 1 hour before administration of a single dose of fruquintinib 5 mg by mouth. Subjects were discharged after completion of EOS procedures on Study Day 26 or at early withdrawal.
as §2
as §3, with “fruquintinib. […]” for “fruquintinib.”

[3] = fruquintinib 5 mg + rifampin 600 mg, n = 13
[4] = fruquintinib alone 5 mg, n = 13
[5] = fruquintinib alone 5 mg, n = 14
[6] = fruquintinib 5 mg + itraconazole 200 mg, n = 13
[7] = fruquintinib 5 mg + itraconazole 200 mg, n = 14
[8] = coadministration of itraconazole

## COc1cc2ncnc(Oc3ccc4c(C(N)=O)c(C)oc4c3)c2cc1OC [M11]
[1]; [3]
  MPR AUC0‐inf (metabolite‐to‐parent ratio): 1.13 (0.269)
  MPR AUC0‐t (metabolite‐to‐parent ratio): 1.12 (0.266)
  MPR Cmax (metabolite‐to‐parent ratio): 0.312 (0.0975)
  Tmax: 22.9 (22.9–46.9) hour
[1]; [4]
  MPR AUC0‐inf (metabolite‐to‐parent ratio): 0.379 (0.0944)
  MPR AUC0‐t (metabolite‐to‐parent ratio): 0.295 (0.0848)
[1]; [5]
  MPR Cmax (metabolite‐to‐parent ratio): 0.117 (0.0462)
[1]; both sexes, human, oral, fruquintinib 5 mg + rifampin 600 mg, n = 13
  Cmax: 31.1 ng/mL
[1]; both sexes, human, oral, fruquintinib alone 5 mg, n = 14
  Cmax: 13.7 ng/mL
[1]; both sexes, human, plasma, oral, 5 mg, fruquintinib alone 5 mg, n = 13
  half-life: 71.8 h
[1]; both sexes, human, plasma, oral, 5 mg, fruquintinib alone 5 mg, n = 13, read-out: AUC0‐inf
  AUC: 2160 ng·h/mL
[1]; both sexes, human, plasma, oral, 5 mg, fruquintinib alone 5 mg, n = 13, read-out: AUC0‐t
  AUC: 1610 ng·h/mL
[1]; both sexes, human, plasma, oral, 5 mg, fruquintinib alone 5 mg, n = 14, read-out: tmax
  Tmax: 48 h
[1]; both sexes, human, plasma, oral, fruquintinib 5 mg + rifampin 600 mg, n = 13
  half-life: 25.1 h
[1]; both sexes, human, plasma, oral, fruquintinib 5 mg + rifampin 600 mg, n = 13, read-out: AUC0‐inf
  AUC: 2200 ng·h/mL
[1]; both sexes, human, plasma, oral, fruquintinib 5 mg + rifampin 600 mg, n = 13, read-out: AUC0‐t
  AUC: 2130 ng·h/mL
[1]; both sexes, human, plasma, oral, fruquintinib 5 mg + rifampin 600 mg, n = 13, read-out: tmax
  Tmax: 23 h
[1]; coadministration of fruquintinib with rifampin versus fruquintinib alone
  increase of M11 Cmax: 2.3 fold
[2]; [6]
  MPR AUC0‐inf (metabolite‐to‐parent ratio): 0.177 (0.0371)
  half-life: 70.5 h
[2]; [7]
  MPR AUC0‐t (metabolite‐to‐parent ratio): 0.141 (0.0301)
  MPR Cmax (metabolite‐to‐parent ratio): 0.0579 (0.0155)
  Cmax: 6.7 ng/mL
  Tmax: 47.9 h
[2]; fruquintinib alone 5 mg, n = 12
  MPR AUC0‐inf (metabolite‐to‐parent ratio): 0.336 (0.0766)
[2]; [5]
  MPR AUC0‐t (metabolite‐to‐parent ratio): 0.291 (0.0745)
  MPR Cmax (metabolite‐to‐parent ratio): 0.121 (0.0358)
  Cmax: 15.2 ng/mL
  Tmax: 72 h
[2]; 5 mg, fruquintinib alone 5 mg, n = 12
  half-life: 58.6 h
[2]; 5 mg, fruquintinib alone 5 mg, n = 12, read-out: AUC0‐inf
  AUC: 2000 ng·h/mL
[2]; 5 mg, fruquintinib alone 5 mg, n = 14, read-out: AUC0‐t
  AUC: 1580 ng·h/mL
[2]; fruquintinib 5 mg + itraconazole 200 mg, n = 13, read-out: AUC0‐inf
  AUC: 1100 ng·h/mL
[2]; fruquintinib 5 mg + itraconazole 200 mg, n = 14, read-out: AUC0‐t
  AUC: 816 ng·h/mL
[2]; [8]
  decrease of M11 AUC0‐inf: 44%
  decrease of M11 AUC0‐t: 48%
  decrease of M11 Cmax: 55%
